Molecules are shown by their SMILES.

One assay addresses human C5aR (Homo sapiens (Human), UniProt P21730). In words: FLIPR assay: inhibition of C5a-mediated calcium mobilization. In kind it is cell-based. The conditions noted are these: stable cell line over expressing human C5aR & Gα15, human C5a at EC50 (0.1-0.25 nM). In short, it runs like this: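 Compounds were added for 30 minutes at room temperature (1% DMSO) ahead of C5a stimulation. Before this, cells were dye-loaded for 1 h at 37° C: calcium 5 with 2.5 mM probenecid in HBSS, 20 mM HEPES, 0.1% BSA. Cells co-express human C5aR and Gα15; read-out is FLIPR Tetra calcium flux.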
On the technique in general: A change in cytosolic calcium serves as a functional read-out for many receptors and channels.

For a further assay, the system named is CD11b. The assay can be described thus: Human whole blood CD11b up-regulation assay. In kind it is cell-based. Conditions: Homo sapiens, 2 nM human C5a, CD15+ granulocytes, read-out: hCD11b IC50. In short, it runs like this: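 Flow cytometric read-out: CD11b median fluorescence intensity of CD15+ granulocytes, 10,000 events. Stimulus was 2 nM human C5a for 15 min at room temperature, following 10 min compound exposure in 1% DMSO in fresh sodium-heparin whole blood; staining done on ice and erythrocytes lysed.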

Sequence of human C5aR (P21730 whole entry): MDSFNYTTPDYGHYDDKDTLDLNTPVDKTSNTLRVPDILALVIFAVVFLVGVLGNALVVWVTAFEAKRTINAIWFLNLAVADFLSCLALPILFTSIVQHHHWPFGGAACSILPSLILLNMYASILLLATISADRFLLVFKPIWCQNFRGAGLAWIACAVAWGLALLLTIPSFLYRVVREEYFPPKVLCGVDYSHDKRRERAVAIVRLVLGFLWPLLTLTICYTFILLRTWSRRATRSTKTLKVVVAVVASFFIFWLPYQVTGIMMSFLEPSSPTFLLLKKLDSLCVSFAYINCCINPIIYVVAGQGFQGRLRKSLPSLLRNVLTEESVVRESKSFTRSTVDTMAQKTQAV

Broadly, the IC50 is the midpoint of a concentration-inhibition curve. As to `COc1ccc(C)c(N2CCc3nc(-c4c(C(C)C)ccc5[nH]ncc45)nc(N4CC[C@H](OC)C(C)(C)C4)c3C2)c1` [Example 19-AE, (S)-2-(5-isopropyl-1H-indazol-4-yl)-6-(5-methoxy-2-methylphenyl)-4-(4-methoxy-3,3-dimethylpiperidin-1-yl)-5,6,7,8-tetrahydropyrido[4,3-d]pyrimidine], the IC50 was 4 nM at human C5aR and 22 nM in the assay on CD11b.
With `Cc1ccc(C(C)C)cc1N1CCc2nc(-c3cccc4[nH]cc(C)c34)nc(N3CC(O)C3)c2C1` [Example 17-AP, 1-(6-(5-isopropyl-2-methylphenyl)-2-(3-methyl-1H-indol-4-yl)-5,6,7,8-tetrahydropyrido[4,3-d]pyrimidin-4-yl)azetidin-3-ol], the IC50 at human C5aR stood at 10 nM; with CD11b, 513 nM.
In the same order, the values of `Cc1ccc(C(C)C)cc1N1CCc2nc(-c3c(C)ccc4[nH]nc(C)c34)nc(OCC(F)F)c2C1` [Example 63-E, 4-(2,2-difluoroethoxy)-2-(3,5-dimethyl-1H-indazol-4-yl)-6-(5-isopropyl-2-methylphenyl)-5,6,7,8-tetrahydropyrido[4,3-d]pyrimidine] are 23 nM and 29 nM.
On to `CO[C@@H]1CCN(c2nc(-c3c(C)cccc3C)nc3c2CN(c2cc(Cl)ccc2C)CC3)[C@H](C)C1` [Example 21-P, 6-(5-chloro-2-methylphenyl)-2-(2,6-dimethylphenyl)-4-((2R,4R)-4-methoxy-2-methylpiperidin-1-yl)-5,6,7,8-tetrahydropyrido[4,3-d]pyrimidine], for which the IC50 came out at 7 nM at human C5aR and 26 nM in the assay on CD11b.
With `Cc1ccc(C(C)C)cc1N1CCc2nc(-c3c(C(C)C)ccc4[nH]ncc34)cc(C)c2C1` [Example 41-G, 2-(5-isopropyl-1H-indazol-4-yl)-6-(5-isopropyl-2-methylphenyl)-4-methyl-5,6,7,8-tetrahydro-1,6-naphthyridine], the half-inhibitory concentration (IC50) on human C5aR amounted to 3 nM; in the assay with CD11b it was 70 nM.
In the same order, the values of `CO[C@H]1CCN(c2nc(-c3cccc4[nH]cc(C)c34)nc3c2CN(c2cc(C(C)C)ccc2C)CC3)C[C@@H]1C` [Example 17-AY, 6-(5-isopropyl-2-methylphenyl)-4-((3S,4S)-4-methoxy-3-methylpiperidin-1-yl)-2-(3-methyl-1H-indol-4-yl)-5,6,7,8-tetrahydropyrido[4,3-d]pyrimidine] are 9 nM and 45 nM.
For `COc1ccc(C)c(N2CCc3nc(-c4c(C)cccc4C)nc(N4CC[C@@H](OC)C[C@H]4C)c3C2)c1` [Example 21-N, 2-(2,6-dimethylphenyl)-6-(5-methoxy-2-methylphenyl)-4-((2R,4R)-4-methoxy-2-methylpiperidin-1-yl)-5,6,7,8-tetrahydropyrido[4,3-d]pyrimidine] the same measures were 2 nM and 8 nM.
In the same order, the values of `CO[C@H]1CCN(c2nc(-c3c(C(C)C)ccc4[nH]ncc34)nc3c2CN(c2cc(C(C)C)nn2C)CC3)CC1(C)C` [Example 23-F, (S)-6-(3-isopropyl-1-methyl-1H-pyrazol-5-yl)-2-(5-isopropyl-1H-indazol-4-yl)-4-(4-methoxy-3,3-dimethylpiperidin-1-yl)-5,6,7,8-tetrahydropyrido[4,3-d]pyrimidine] are 5 nM and 28 nM.
With `CO[C@@H]1CCN(c2nc(-c3c(C)ccc4[nH]nc(C)c34)nc3c2CN(c2cc(C(C)C)ccc2C)CC3)[C@H](C)C1` [Example 21-Q, (+)-2-(3,5-dimethyl-1H-indazol-4-yl)-6-(5-isopropyl-2-methylphenyl)-4-((2R,4R)-4-methoxy-2-methylpiperidijn-1-yl)-5,6,7,8-tetrahydropyrido[4,3-d]pyrimidine], the IC50 worked out at 1 nM at human C5aR and 7 nM in the assay with CD11b.
In the same order, the values of `Cc1cc(-c2c(C(C)C)ccc3[nH]ncc23)nc2c1CN(c1c(Cl)c(C3CC3)nn1C)CC2` [Example 46-B, 6-(4-Chloro-3-cyclopropyl-1-methyl-1H-pyrazol-5-yl)-2-(5-isopropyl-1H-indazol-4-yl)-4-methyl-5,6,7,8-tetrahydro-1,6-naphthyridine] are 42 nM and 224 nM.

Values taken from patent publication US8846656B2, “Tetrahydropyrido-pyridine and tetrahydropyrido-pyrimidine compounds and use thereof as C5a receptor modulators” (Novartis AG, priority 2011, dated 2014).
